Experimental data reported in patent US5736528A, “N^6 -(epoxynorborn-2-yl) adenosines as A1 adenosine receptor agonists” (priority 1995, dated 1998).
Where two headings read alike, the source gives them in different places.

Key:
A1 receptor [1] = biological target: T1, A1 receptor (Mesocricetus auratus, UniProt A0A1U8BVR4); test: A1 receptor binding with [3H]CPX in intact DDT1 MF2 cells
T1 sequence (A0A1U8BVR4 1-326): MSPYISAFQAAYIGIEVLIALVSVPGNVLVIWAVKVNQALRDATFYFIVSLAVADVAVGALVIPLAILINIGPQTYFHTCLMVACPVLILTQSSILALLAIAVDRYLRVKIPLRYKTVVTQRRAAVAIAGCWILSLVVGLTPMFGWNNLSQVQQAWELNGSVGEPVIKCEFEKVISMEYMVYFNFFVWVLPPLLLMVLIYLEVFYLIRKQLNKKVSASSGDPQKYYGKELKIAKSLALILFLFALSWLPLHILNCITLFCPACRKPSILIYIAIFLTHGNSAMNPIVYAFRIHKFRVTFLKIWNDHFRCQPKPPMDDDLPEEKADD
From the text: Radioligand binding studies.
(§2) Values are mean ± SEM of triplicate determinations in each
of several (n) preparations.

[2] = biological target: T2, rat brain adenosine A2 receptors (Rattus norvegicus, UniProt P30543); test: Antagonism of radioligand binding to rat brain adenosine A2 receptors
T2 construct: rat brain adenosine A1 and A2 receptors; from tissue; host or cells: rat brain
From the text: (§3) rat brain adenosine A1 and A2 receptors ("IC50 "* values)
(§4) *"IC50 " refers to the concentration at which radioligand binding to
receptors was 50% inhibited.

[3] = test system: guinea pig tracheal muscle; test: Relaxation of tracheal muscle
From the text: (§1) However, that can be useful in treating conditions that indicate short-acting treatments.

[4] = test system: negative dromotropic effect of carbachol or MgCl2; test: Specificity: negative dromotropic effect of carbachol or MgCl2 in isolated heart; set-up: species or system guinea pig; conditions: ENX 2 nM, 2 μM
From the text: The height of each bar graph presents the mean±SEM of 4 experiments. Only the S--H interval prolongation caused by adenosine was antagonized by ENX.

phosphodiesterase = test: Phosphodiesterase activity in homogenates of DDT1 MF-2 cells; format: biochemical; conditions: DDT1 MF-2 homogenate, 45 min, 30° C.
Procedure: Cells were homogenized in 40 mM Tris buffer at pH 8.0, and the whole homogenate was used in the enzyme assays. PDE activity was determined by incubating homogenate (0.4 mg protein) in Tris buffer containing 20 mM MgCl2, 4 mM mercaptoethanol, 0.06 mg bovine serum albumin, 0.4 mM cAMP 130 nCi of [^3 H]cAMP and the indicated concentrations of ENX or IBMX for 45 min at 30° C. Blank incubations were carried out in parallel assays without the homogenate. At the end of the incubation, the suspensions were incubated in a boiling water bath for 2 minutes, transferred to an ice-water bath for 2 minutes and 0.1 mg of snake venom phosphodiesterase was added. The suspensions were incubated for 10 minutes at 30° C., and the adenosine formed was isolated by ion exchange chromatography. […] The amount of adenosine formed was linear over the incubation period used.

A1 receptor [5] = biological target: T3, A1 receptor (Cavia porcellus, UniProt P47745); test: Antagonism of A1 receptor-mediated negative dromotropic effect (S-H interval prolongation) of CCPA, Schild analysis, isolated perfused heart; set-up: species or system guinea pig; conditions: for Slope of Schild plot: mean ± S.E.M.
T3 construct: isolated perfused guinea pig heart; from tissue; host or cells: isolated perfused guinea pig heart
T3 sequence (P47745 1-326): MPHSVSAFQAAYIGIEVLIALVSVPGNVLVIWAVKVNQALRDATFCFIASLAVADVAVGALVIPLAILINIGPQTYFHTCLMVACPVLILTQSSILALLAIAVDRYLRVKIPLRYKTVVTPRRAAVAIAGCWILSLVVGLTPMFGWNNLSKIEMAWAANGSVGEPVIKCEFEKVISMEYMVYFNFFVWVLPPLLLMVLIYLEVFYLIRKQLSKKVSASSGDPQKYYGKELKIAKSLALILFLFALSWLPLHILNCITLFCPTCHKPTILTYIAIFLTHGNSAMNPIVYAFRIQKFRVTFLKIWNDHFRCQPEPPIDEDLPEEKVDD
From the text: Potency of various alkylxanthines to antagonize A1
cardiac response: results of Schild analysis.
Cardiac response: antagonism of the negative dromotropic effect of the
selective A1 agonist CCPA.

A2 receptor [6] = biological target: T4, A2 receptor (Cavia porcellus, UniProt P46616); test: Antagonism of A2 receptor-mediated coronary vasodilation (coronary conductance) caused by adenosine, isolated perfused heart; set-up: species or system guinea pig
T4 construct: isolated perfused guinea pig heart; from tissue; host or cells: isolated perfused guinea pig heart (coronary circulation)
From the text: The values are the mean±SEM from five guinea pig hearts.
of a maximum coronary vasodilation caused by adenosine. Values in

rats = test: Cumulative urine output (diuretic activity) in rats; format: in vivo, rat
A1 receptor [7] = biological target: T3, A1 receptor; test: S-H interval prolongation by adenosine in isolated heart, antagonism by ENX; set-up: species or system guinea pig
From the text: The height of each bar graph presents the mean±SEM of 4 experiments.

A1 adenosine receptor [8] = biological target: A1 adenosine receptor (Cavia porcellus, UniProt P47745); test: A1 receptor binding with [3H]CPX in forebrain membranes (Table 5); set-up: guinea pig forebrain (A1 receptor); from tissue; host or cells: guinea pig forebrain membranes; species or system guinea pig
From the text: (§5) Values are mean ± S.E.M. of triplicate determinations in
each of four preparations.

A2 receptor [9] = biological target: T5, A2 receptor (Rattus norvegicus, UniProt P30543); test: A2 receptor binding with [3H]NECA in PC12 cell membranes; conditions: mean ± SEM (n), read-out: Ki, PC-12
T5 construct: endogenous in cells; host or cells: PC12 cell membranes
Procedure: Radioligand binding studies.
A2 receptor binding was carried out with [^3 H]NECA in PC12 cell
membranes. Values are mean ± SEM of triplicate determinations in each
of several (n) preparations.

A2 adenosine receptor = biological target: T6, A2 adenosine receptor (Cavia porcellus, UniProt P46616); test: A2 receptor binding with [3H]CGS 21,860 in striatum membranes (Table 5); set-up: species or system guinea pig; conditions: mean ± S.E.M., read-out: K1, A2 (striatum)
T6 construct: from tissue; host or cells: guinea pig striatum membranes
From the text: as §5
each of four preparations.

guinea pig hearts = test: Left ventricular pressure and dP/dt (inotropic effect) in isolated hearts
From the text: Identical results were obtained in three other hearts.

[10] = biological target: T7, rat brain adenosine A1 receptors (Rattus norvegicus, UniProt P25099); test: Antagonism of radioligand binding to rat brain adenosine A1 receptors
T7 construct: rat brain A1 adenosine receptors; from tissue; host or cells: rat brain
T7 sequence (P25099 1-326): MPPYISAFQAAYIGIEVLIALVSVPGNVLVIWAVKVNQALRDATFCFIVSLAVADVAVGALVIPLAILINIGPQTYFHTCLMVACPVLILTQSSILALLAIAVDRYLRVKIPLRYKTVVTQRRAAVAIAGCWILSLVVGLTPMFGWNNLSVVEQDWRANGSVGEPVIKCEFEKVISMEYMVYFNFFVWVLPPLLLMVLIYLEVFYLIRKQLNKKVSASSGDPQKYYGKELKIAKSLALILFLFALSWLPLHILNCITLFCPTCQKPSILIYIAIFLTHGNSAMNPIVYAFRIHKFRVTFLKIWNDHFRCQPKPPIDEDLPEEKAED
From the text: as §3, §4
receptors was 50% inhibited.

A1 receptor [11] = biological target: T3, A1 receptor; test: A1 receptor binding with [3H]CPX in brain membranes (Table 4); set-up: species or system guinea pig
From the text: Radioligand binding studies.
as §2
of several (n) preparations.

A1 adenosine receptor [12] = biological target: A1 adenosine receptor (Homo sapiens, UniProt P30542); test: A1 adenosine receptor agonist potency and selectivity (summary); conditions: racemic isomers
A1-adenosine receptor [13] = biological target: T8, A1-adenosine receptor (Mesocricetus auratus, UniProt A0A1U8BVR4); conditions: EC50, text to Table 8, DDT cells
T8 sequence (A0A1U8BVR4 1-326): T1 sequence (A0A1U8BVR4 1-326)
Procedure: (§6) The agonist compounds were tested for their potency to inhibit (-)isoproterenol stimulated cAMP accumulation in DDT1 MF-2 (DDT) cells. This effect is mediated through the action of the A1 -adenosine receptor (A1 AR).
(§7) Cells were seeded at 0.2-1.0×10^4 cells/cm^2 and subcultured twice weekly after detachment using divalent cation-free phosphate-buffered saline containing 1 mM ethylenediamine tetraacetic acid (EDTA). Experiments were performed on cells that were grown to 1 day preconfluent.
(§8) The potency of the A1 AR agonists was determined by their ability to inhibit (-)isoproterenol-stimulated cAMP accumulation. […] After cooling to room temperature, the tubes were centrifuged for 2 minutes at 10,000 g, and supernatants were saved.
(§9) Briefly, an aliquot of the supernatant (50 μL) was incubated in a volume of 0.2 mL containing 25 mM Tris-HCl buffer (pH 7.0), 8 mM theophylline, 0.8 pmol [^3 H]cAMP (31.4 Ci/mmol, New England Nuclear) and 20 μg of bovine heart cAMP dependent protein kinase (Sigma Chemical Co.) at 4° C. for 1 hour. At the end of the incubation, 75 μl of a 50% (v/v) hydroxyapatite-water suspension was added to each tube followed by 4 ml of ice-cold 10 mM Tris-HCl buffer (pH 7.0). The suspension was then poured onto a Whatman GF/B glass fiber filter under reduced pressure, the filter was washed with a further 6 ml of ice-cold buffer, placed in a scintillation vial with 4 mL of Liquiscint (National Diagnostics), and the radioactivity determined in a liquid scintillation counter. The amount of cAMP in the samples was calculated from a standard curve using known concentrations of unlabeled cAMP.

A1-adenosine receptor [14] = conditions: 1 μM alone; 10 min
Procedure: as §6, §7, §8, §9

A1-adenosine receptor [15] = conditions: 1 μM (-)isoproterenol
Procedure: as §6, §7, §8, §9

[16] = test system: paroxysmal supraventricular tachycardia (PSVT); conditions: in vivo; cited from earlier work
[17] = Metabolism of ENX enantiomer; format: in vitro ADME
A1 adenosine receptor [18] = biological target: T9, A1 adenosine receptor (Rattus norvegicus, UniProt P25099); test: Biological activity and duration of action of ENX enantiomers; format: in vivo; conditions: for duration of action: S- vs R-enantiomer
T9 construct: from tissue; host or cells: whole animal
T9 sequence (P25099 1-326): T7 sequence (P25099 1-326)

[19] = biological target: T10, rat brain A1 adenosine receptors (Rattus norvegicus, UniProt P25099); test: Equilibrium dissociation constants for rat brain A1 adenosine receptors; format: binding; conditions: Table 6
T10 construct: rat brain A1 adenosine receptors; from tissue; host or cells: rat brain

hydrated rat = test: Saluretic/kaluretic activity in hydrated rat; format: in vivo; conditions: 30 mg/kg per os
From the text: as §1

[20] = test system: serum cholesterol and heparin precipitating β-lipoproteins; test: Serum cholesterol and heparin precipitating β-lipoproteins in mice; format: in vivo; conditions: 100 mg/kg per os

T2 sequence (P30543 whole entry): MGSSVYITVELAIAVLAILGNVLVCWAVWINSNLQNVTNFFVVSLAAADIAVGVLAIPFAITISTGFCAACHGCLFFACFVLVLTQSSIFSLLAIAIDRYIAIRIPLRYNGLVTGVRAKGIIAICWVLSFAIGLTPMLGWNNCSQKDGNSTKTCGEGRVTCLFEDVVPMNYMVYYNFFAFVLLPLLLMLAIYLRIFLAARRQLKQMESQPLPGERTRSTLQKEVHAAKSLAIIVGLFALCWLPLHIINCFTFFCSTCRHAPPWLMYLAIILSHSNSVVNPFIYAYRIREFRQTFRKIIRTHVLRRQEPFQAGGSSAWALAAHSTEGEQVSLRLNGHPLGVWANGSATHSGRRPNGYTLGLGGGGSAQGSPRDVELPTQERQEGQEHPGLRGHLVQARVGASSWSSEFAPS
T4 sequence (P46616 whole entry, the tested form may be a part): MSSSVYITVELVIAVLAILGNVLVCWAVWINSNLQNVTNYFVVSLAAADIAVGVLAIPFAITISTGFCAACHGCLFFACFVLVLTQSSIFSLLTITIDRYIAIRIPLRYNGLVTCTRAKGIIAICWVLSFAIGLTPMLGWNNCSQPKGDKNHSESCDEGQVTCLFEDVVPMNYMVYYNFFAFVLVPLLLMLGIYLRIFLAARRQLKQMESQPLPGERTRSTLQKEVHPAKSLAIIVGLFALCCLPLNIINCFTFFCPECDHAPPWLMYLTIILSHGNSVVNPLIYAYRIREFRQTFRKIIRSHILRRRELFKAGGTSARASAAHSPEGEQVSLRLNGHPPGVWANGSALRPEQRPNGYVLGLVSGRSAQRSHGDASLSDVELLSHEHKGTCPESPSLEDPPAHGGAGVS
T6 sequence (P46616 whole entry): as the sequence (P46616 whole entry, the tested form may be a part) above
Chain of A1 adenosine receptor (Homo sapiens, UniProt P30542) (P30542 whole entry): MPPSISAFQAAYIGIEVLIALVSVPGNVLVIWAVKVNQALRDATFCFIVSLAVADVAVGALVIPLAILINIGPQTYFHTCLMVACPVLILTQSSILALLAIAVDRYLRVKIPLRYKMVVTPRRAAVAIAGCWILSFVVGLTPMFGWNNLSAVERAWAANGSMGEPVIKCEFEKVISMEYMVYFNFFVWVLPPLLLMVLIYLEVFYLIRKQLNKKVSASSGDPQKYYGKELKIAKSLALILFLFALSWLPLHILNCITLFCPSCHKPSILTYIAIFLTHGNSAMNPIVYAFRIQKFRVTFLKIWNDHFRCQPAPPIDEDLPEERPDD
T5 sequence (P30543 whole entry): as the sequence (P30543 whole entry) above

CCCn1c(=O)c2[nH]c(C3CC4CC3C3OC43)nc2n(CCC)c1=O (racemic) [ENX, 1,3-dipropyl-8-{3-oxatricyclo[3.1.2.0^2,4]oct-6(7)-yl}-xanthine]
Ki (A1 receptor [1]): 0.22 ± 0.03 nM
IC50 [2]: 2100 nM
tracheal smooth muscle relaxation / bronchodilation [3]: relax tracheal smooth muscle
antagonism of negative dromotropic effect of carbachol or MgCl2 [4]: did not antagonize
phosphodiesterase inhibition (phosphodiesterase): does not inhibit phosphodiesterase
Kb (A1 receptor [5]): 3.6 nM
Slope of Schild plot (A1 receptor [5]): -0.91 ± 0.06
IC50 for A2 receptor-mediated coronary vasodilation (A2 receptor [6]): no effect
inhibition at 50 µM (A2 receptor [6]; read-out: inhibition of coronary vasodilation): 0%
diuretic potency compared with furosemide (Lasix) (rats; rat, in vivo): at least as high as the potency of furosemide
antagonism of S-H prolongation caused by adenosine (A1 receptor [7]; ENX 2 nM, 2 μM, adenosine 4 μM): did antagonize
effect on S-H interval prolongation caused by adenosine (A1 receptor [7]; ENX 0.4 μM with adenosine 4 μM): completely inhibited
Ki (A1 adenosine receptor [8]): 0.45 ± 0.13 nM
Ki (A2 receptor [9]): 11700 nM
Ki (A2 adenosine receptor): 360 ± 36 nM
stimulus-to-His bundle interval, ENX alone (guinea pig hearts; ENX alone, up to 200 μM): no significant changes
LVP or dP/dt (guinea pig hearts; normoxic hearts, ENX 2-200 μM): no significant changes
IC50 [10]: 1.65 nM
Ki (A1 receptor [11]): 0.45 ± 0.22 nM

OC[C@H]1O[C@@H](n2cnc3c(N[C@H]4C[C@@H]5C[C@H]4[C@H]4O[C@@H]54)ncnc32)[C@H](O)[C@@H]1O (relative stereo) [N^6-(endo-5,6-epoxynorborn-2-yl) adenosine]
A1 agonist potency and selectivity (A1 adenosine receptor [12]): potent and highly selective agonists
EC50 (A1-adenosine receptor [13]): 1 to 2 nM

[O-][n+]1cnc2c(ncn2[C@@H]2O[C@H](CO)[C@@H](O)[C@H]2O)c1N[C@@H]1C[C@@H]2C[C@H]1[C@H]1O[C@@H]21 (relative stereo) [N^6-(exo-5,6-epoxynorborn-2-yl) adenosine-1-oxide]
EC50 (A1-adenosine receptor [13]): 403 nM

OC[C@H]1O[C@@H](n2cnc3c(N[C@@H]4C[C@@H]5C[C@H]4[C@H]4O[C@@H]54)ncnc32)[C@H](O)[C@@H]1O (relative stereo) [N^6-(exo-5,6-epoxynorborn-2-yl) adenosine]
A1 agonist potency and selectivity (A1 adenosine receptor [12]): potent and highly selective agonists
EC50 (A1-adenosine receptor [13]): 1 to 2 nM

CC(C)NC[C@H](O)c1ccc(O)c(O)c1 [(-)Isoproterenol, reference compound]
cAMP accumulation increase above basal level (A1-adenosine receptor [14]): 57 fold
stimulated cAMP accumulated (A1-adenosine receptor [15]): 458 ± 41 pmol cAMP formed per 10 minutes

Nc1ncnc2c1ncn2[C@@H]1O[C@H](CO)[C@@H](O)[C@H]1O [Adenosine]
effectiveness in terminating PSVT [16]: > 90%

OC[C@H]1O[C@@H](n2cnc3c(NC4CCCC4)ncnc32)[C@H](O)[C@@H]1O [CPA, N^6 -cyclopentyladenosine, reference compound]
EC50 (A1-adenosine receptor [13]): 1 to 2 nM

Cn1c(=O)c2[nH]c(C3CCCC3)nc2n(C)c1=O [CPT, 8cyclopentyl-1,3-dimethylxanthine]
Ki (A1 receptor [11]; read-out: Ki, Brain): 41 ± 13 nM

CCCn1c(=O)c2[nH]c(C3CCCC3)nc2n(CCC)c1=O [CPX, 8-cyclopentyl-1,3-dipropylxanthine]
Ki (A1 receptor [1]): 0.13 ± 0.01 nM
Slope of Schild plot (A1 receptor [5]): -0.81 ± 0.03

CC(C)Cn1c(=O)n(C)c(=O)c2[nH]cnc21 [IBMX, isobutylmethylxanthine, reference compound]
phosphodiesterase inhibition (phosphodiesterase): inhibits phosphodiesterase

CCCn1c(=O)c2[nH]c(C34CC5CC(CC3C5)C4)nc2n(CCC)c1=O [NAX, 1,3dipropyl-8-(3-noradamantyl)xanthine]
Ki (A1 receptor [1]; read-out: Ki, DDT1 MF2): 0.18 ± 0.05 nM
Kb (A1 receptor [5]; Schild analysis, numbers in parentheses are minimum and maximum KB values, read-out: KB, equilibrium dissociation constant): 1.6 nM
Slope of Schild plot (A1 receptor [5]): -0.89 ± 0.11
IC50 (A2 receptor [6]): 7100 nM
Ki (A2 adenosine receptor): 22 ± 6.9 nM
Ki (A1 receptor [11]; read-out: Ki, Brain): 3.8 ± 0.21 nM

CCCn1c(=O)c2[nH]c([C@@H]3C[C@H]4C[C@@H]3[C@@H]3O[C@H]43)nc2n(CCC)c1=O [R-ENX]
IC50 [2]: 2600 nM
tracheal smooth muscle relaxation / bronchodilation [3]: bronchodilators
relaxation of spontaneous tone in trachea ([3]; guinea pig trachea): induce relaxation of spontaneous tone
metabolism [17]: rapidly degraded or metabolized
duration of action (A1 adenosine receptor [18]): very short duration of action as compared to the S-enantiomer
Ki [19]: 2.1 nM
IC50 [10]: 2.7 nM

CCCn1c(=O)c2[nH]c([C@H]3C[C@@H]4C[C@H]3[C@H]3O[C@@H]43)nc2n(CCC)c1=O [S-ENX]
IC50 [2]: 9000 nM
tracheal smooth muscle relaxation / bronchodilation [3]: bronchodilators
relaxation of constricted tracheal muscle ([3]; guinea pig, 100 mg/kg per os): relaxed constricted guinea pig tracheal muscle
duration of action (A1 adenosine receptor [18]; listed as S-enantiomer): longer duration of action than the R-enantiomer
duration of action (A1 adenosine receptor [18]; listed as S-enantiomer of ENX): longer
share of the biological activity of racemic ENX (A1 adenosine receptor [18]; in vivo): 80-90%
diuretic activity (cumulative urine output) (rats; 0.1 mg/kg i.v., 2 hours, rats): more potent than the R-enantiomer of ENX or a racemic mixture of R-and S-enantiomers of ENX
Ki [19]: 0.98 nM
kaluretic activity (hydrated rat): Moderate kaluretic activity
IC50 [10]: 1.15 nM
serum cholesterol and heparin precipitating β-lipoproteins [20]: reduced serum cholesterol and heparin precipitating β-lipoproteins
